Assay results reported in patent publication US11214578B2, “Urea/carbamates FAAH MAGL or dual FAAH/MAGL inhibitors and uses thereof” (Northeastern University, priority 2014, dated 2022).
Where two headings read alike, the source gives them in different places.

Legend:
Type in all cases: biochemical
[1] = target: T1, ΔTM rat FAAH (Rattus norvegicus, UniProt P97612); assay: Fluorescent assay protocol for ΔTM rat FAAH (AAMCA substrate); details: 15 min preincubation, read-out: IC50 rFAAH
T1 construct: Preparation of Transmembrane Domain-Deleted Rat FAAH (ΔTM rFAAH); made in house; host or cells: E. coli
T1 sequence (P97612 30-579 limits assumed): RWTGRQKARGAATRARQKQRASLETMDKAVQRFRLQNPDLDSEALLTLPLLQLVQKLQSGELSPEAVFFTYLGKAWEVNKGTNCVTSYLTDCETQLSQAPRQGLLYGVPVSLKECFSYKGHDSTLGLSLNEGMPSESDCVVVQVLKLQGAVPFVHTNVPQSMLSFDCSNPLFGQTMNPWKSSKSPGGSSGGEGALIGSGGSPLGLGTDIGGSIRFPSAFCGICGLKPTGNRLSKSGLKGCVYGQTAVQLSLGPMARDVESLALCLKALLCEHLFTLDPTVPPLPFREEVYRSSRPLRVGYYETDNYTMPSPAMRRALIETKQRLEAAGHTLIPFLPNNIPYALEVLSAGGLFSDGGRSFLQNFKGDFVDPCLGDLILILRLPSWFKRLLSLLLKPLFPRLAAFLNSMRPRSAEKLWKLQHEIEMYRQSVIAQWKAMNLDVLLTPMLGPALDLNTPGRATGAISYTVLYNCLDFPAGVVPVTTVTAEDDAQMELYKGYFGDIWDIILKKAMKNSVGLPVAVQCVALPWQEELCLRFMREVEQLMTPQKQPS
Procedure, shortened: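 ΔTM rat FAAH (15 μg) was pre-incubated 15 min at 25° C with compound (screening at 1, 10 and 100 μM), then reacted with the fluorigenic substrate AAMCA. Percent inhibition came from fluorescence at 3 h (linear kinetics) relative to no-inhibitor controls, in triplicate.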

[2] = target: T2, Human MAGL (hMAGL) (Homo sapiens, UniProt Q99685); assay: Fluorescent assay protocol for hMAGL (AHMMCE substrate)
T2 construct: hexahistidine; made in house; host or cells: E. coli
T2 sequence (Q99685 1-303): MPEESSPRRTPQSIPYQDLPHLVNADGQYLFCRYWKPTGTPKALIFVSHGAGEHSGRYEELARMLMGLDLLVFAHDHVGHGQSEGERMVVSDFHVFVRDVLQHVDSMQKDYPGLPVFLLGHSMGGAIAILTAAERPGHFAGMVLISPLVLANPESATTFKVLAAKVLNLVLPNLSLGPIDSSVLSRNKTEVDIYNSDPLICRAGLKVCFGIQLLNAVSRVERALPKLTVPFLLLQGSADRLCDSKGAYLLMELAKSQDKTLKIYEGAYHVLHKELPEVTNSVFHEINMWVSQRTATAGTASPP
Procedure, shortened: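 Hydrolysis of AHMMCE by human MAGL was monitored at 25°C for 120 min, with fluorescence at 360/460 nm recorded every 15 min and converted to 4-methylcoumarin using external standards. IC50 values were derived from triplicate wells at each inhibitor concentration.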

[3] = target: T3, Rat MAGL (rMAGL) (Rattus norvegicus, UniProt Q8R431); assay: Fluorescent assay protocol for rMAGL
T3 construct: made in house; host or cells: E. coli
T3 sequence (Q8R431 1-303): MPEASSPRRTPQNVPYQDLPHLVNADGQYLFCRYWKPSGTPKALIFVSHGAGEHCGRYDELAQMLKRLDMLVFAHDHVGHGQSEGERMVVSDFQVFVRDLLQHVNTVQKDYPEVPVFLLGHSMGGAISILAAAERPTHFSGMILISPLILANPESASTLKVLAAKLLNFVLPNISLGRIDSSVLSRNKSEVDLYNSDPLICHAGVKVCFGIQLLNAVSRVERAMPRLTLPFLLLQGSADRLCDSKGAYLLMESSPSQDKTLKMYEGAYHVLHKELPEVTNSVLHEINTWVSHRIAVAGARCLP
Procedure, shortened: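 Rat MAGL run as for the human enzyme: AHMMCE substrate hydrolysis to fluorescent coumarin followed at 25° C. for 120 min, read every 15 min at 360/460 nm.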

[4] = target: T4, Human FAAH (MBPΔTMhFAAH) (Homo sapiens, UniProt O00519); assay: Fluorescent assay protocol for hFAAH; details: human FAAH (MBP fusion, ΔTM), procedure as for rFAAH
T4 construct: made in house; host or cells: E. coli (pMALcE4 vector)
T4 sequence (O00519 30-579 limits assumed): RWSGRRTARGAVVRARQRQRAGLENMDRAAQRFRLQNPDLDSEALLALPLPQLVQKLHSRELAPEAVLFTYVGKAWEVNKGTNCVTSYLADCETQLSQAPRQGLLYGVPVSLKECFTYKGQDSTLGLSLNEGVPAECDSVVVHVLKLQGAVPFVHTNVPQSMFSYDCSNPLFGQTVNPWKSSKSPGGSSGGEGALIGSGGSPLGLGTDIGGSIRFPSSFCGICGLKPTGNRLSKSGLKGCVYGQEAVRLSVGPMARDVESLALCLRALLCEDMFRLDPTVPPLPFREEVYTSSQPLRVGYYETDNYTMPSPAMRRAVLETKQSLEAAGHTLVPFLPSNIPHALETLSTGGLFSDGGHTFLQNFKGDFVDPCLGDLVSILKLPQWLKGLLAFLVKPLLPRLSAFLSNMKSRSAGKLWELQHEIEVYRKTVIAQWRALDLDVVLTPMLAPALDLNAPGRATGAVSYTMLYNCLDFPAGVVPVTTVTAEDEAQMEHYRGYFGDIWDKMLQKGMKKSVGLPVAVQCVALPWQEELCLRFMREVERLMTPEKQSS
Procedure, shortened: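 MBP-fused ΔTM human FAAH from E. coli, pre-incubated 15 min at 25 °C with compound in 50 mM HEPES, 1 mM EDTA, 0.1% BSA, pH 7.4 (DMSO below 8%). Substrate AAMCA 20 μM (2×Km); fluorescence (ex 360/em 460) at 3 h gave % inhibition vs uninhibited control, triplicate, IC50 fitted.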

[5] = recombinant human MAGL, AHMMCE substrate, 15 min preincubation, read-out: IC50 hMAGL
[6] = recombinant rat MAGL, procedure as for hMAGL, read-out: IC50 rMAGL

Row | Compound | IC50 [1] | IC50 [2, 5] | IC50 [3, 6] | IC50 [4] | IC50 [2] | IC50 [3]
1 | NC(=O)c1cccc(-c2cccc(NC(=O)N3CCN(c4ccccn4)CC3)c2)c1 [Example 9, N-(3′-carbamoyl-[1,1′-biphenyl]-3-yl)-4-(pyridin-2-yl)piperazine-1-carboxamide] | 0.01 to 0.1 µM | > 1 µM | > 1 µM | 0.01 to 0.1 µM | – | –
2 | N#Cc1ccnc(OC(=O)N2CCN(C3c4ccccc4-c4ccccc43)CC2)c1 [Example 42, 4-cyanopyridin-2-yl 4-(9H-fluoren-9-yl)piperazine-1-carboxylate] | > 1 µM | 0.01 to 0.1 µM | 0.01 to 0.1 µM | > 1 µM | – | –
3 | O=C(Oc1ccc(Cl)cc1Cl)N1CC(OCc2ccc(Cl)cc2)C1 [Example 79, 2,4-Dichlorophenyl 3-(4-chlorobenzyloxy)azetidine-1-carboxylate] | 0.01 to 0.1 µM | – | – | 0.01 to 0.1 µM | 0.11 to 1 µM | 0.11 to 1 µM
4 | O=C(N1CC(Sc2ccc(Br)cc2)C1)n1cncn1 [Example 91] | 0.01 to 0.1 µM | 0.01 to 0.1 µM | 0.01 to 0.1 µM | 0.01 to 0.1 µM | – | –
5 | N#Cc1cccc(-c2cccc(NC(=O)N3CCC(c4ccccc4)CC3)c2)c1 [Example 15, N-(3′-cyano-[1,1′-biphenyl]-3-yl)-4-phenylpiperidine-1-carboxamide] | > 1 µM | > 1 µM | > 1 µM | > 1 µM | – | –
6 | 6-Chloropyridin-2-yl 4-(benzhydryl)piperidine-1-carboxylate [Example 51] | 0.01 to 0.1 µM | > 1 µM | > 1 µM | 0.01 to 0.1 µM | – | –
7 | O=C(Nc1cccc(N2CCS(=O)(=O)CC2)c1)N1CCN(c2ccccc2)CC1 [Example 67, N-(3-(1,1-dioxidothiomorpholino)phenyl)-4-phenylpiperazine-1-carboxamide] | > 1 µM | 0.01 to 0.1 µM | 0.01 to 0.1 µM | > 1 µM | – | –
8 | Cc1ccc(C#N)cc1OC(=O)N1CCC(S(=O)(=O)c2ccc(Br)cc2)CC1 [Example 61, 5-Cyano-2-methylphenyl 4-(4-bromophenylsulfonyl)piperidine-1-carboxylate] | 0.01 to 0.1 µM | > 1 µM | 0.01 to 0.1 µM | 0.01 to 0.1 µM | – | –
9 | NC(=O)c1cccc(-c2cccc(NC(=O)N3CCN(C4c5ccccc5-c5ccccc54)CC3)c2)c1 [Example 8, N-(3′-carbamoyl-[1,1′-biphenyl]-3-yl)-4-(9H-fluoren-9-yl)piperazine-1-carboxamide] | 0.01 to 0.1 µM | > 1 µM | > 1 µM | 0.01 to 0.1 µM | – | –
10 | N#Cc1cccc(-c2cncc(NC(=O)N3CCC(c4ccccc4)CC3)c2)c1 [Example 16, N-(5-(3-cyanophenyl)pyridin-3-yl)-4-phenylpiperidine-1-carboxamide] | > 1 µM | > 1 µM | > 1 µM | > 1 µM | – | –
11 | CC1CN(c2ccccc2)CCN1C(=O)n1cnc(-c2ccccc2)c1 (stereo not drawn) [Example 23, (2-methyl-4-phenylpiperazin-1-yl)(4-phenyl-1H-imidazol-1-yl)methanone] | 0.01 to 0.1 µM | > 1 µM | > 1 µM | 0.11 to 1 µM | – | –
12 | O=C(Oc1c(F)cccc1F)N1CCC(S(=O)(=O)c2ccc(Br)cc2)CC1 [Example 63, 2,6-Difluorophenyl 4-(4-bromophenylsulfonyl)piperidine-1-carboxylate] | > 1 µM | 0.11 to 1 µM | 0.11 to 1 µM | > 1 µM | – | –
13 | N#Cc1cccc(-c2cccc(NC(=O)N3C[C@@H]4C[C@H]3CN4Cc3ccc4ccccc4n3)c2)c1 [Example 93, (1S,4S)—N-(3′-cyano-[1,1′-biphenyl]-3-yl)-5-(quinolin-2-ylmethyl)-2,5-diazabicyclo[2.2.1]heptane-2-carboxamide] | > 1 µM | > 1 µM | > 1 µM | > 1 µM | – | –
14 | O=C(Nc1cccc(Oc2ccccc2)c1)N1CCN(Cc2ccc3ccccc3n2)CC1 [Example 14, N-(3-phenoxyphenyl)-4-(quinolin-2-ylmethyl)piperazine-1-carboxamide] | > 1 µM | > 1 µM | > 1 µM | > 1 µM | – | –
15 | O=C(Oc1cccc(C(F)(F)F)c1)N1CC(OCc2ccc(Cl)cc2)C1 [Example 75, 3-(Trifluoromethyl)phenyl 3-(4-chlorobenzyloxy)azetidine-1-carboxylate] | 0.01 to 0.1 µM | 0.11 to 1 µM | > 1 µM | 0.01 to 0.1 µM | – | –
16 | N#Cc1cccc(-c2cccc(NC(=O)N3CCN(Cc4cccc(-c5ccccc5)c4)CC3)c2)c1 [Example 17, 4-([1,1′-biphenyl]-3-ylmethyl)-N-(3′-cyano-[1,1′-biphenyl]-3-yl)piperazine-1-carboxamide] | 0.01 to 0.1 µM | > 1 µM | > 1 µM | 0.01 to 0.1 µM | – | –
17 | NC(=O)c1cccc(OC(=O)N2CC(OCc3ccc(Cl)cc3)C2)c1 [Example 77, 3-Carbamoylphenyl 3-(4-chlorobenzyloxy)azetidine-1-carboxylate] | 0.01 to 0.1 µM | 0.11 to 1 µM | 0.11 to 1 µM | 0.01 to 0.1 µM | – | –
18 | NC(=O)c1cccc(-c2cccc(NC(=O)N3CCN(Cc4cccc(Oc5ccccc5)c4)CC3)c2)c1 [Example 18, N-(3′-carbamoyl-[1,1′-biphenyl]-3-yl)-4-(3-phenoxybenzyl)piperazine-1-carboxamide] | 0.01 to 0.1 µM | > 1 µM | > 1 µM | 0.11 to 1 µM | – | –
19 | C[C@H]1CN(C(=O)n2cnc(-c3ccccc3)c2)CCN1Cc1cccc(-c2ccccc2)c1 [Example 21, (S)-(4-([1,1′-biphenyl]-3-ylmethyl)-3-methylpiperazin-1-yl)(4-phenyl-1H-imidazol-1-yl)methanone] | 0.11 to 1 µM | > 1 µM | > 1 µM | 0.11 to 1 µM | – | –
20 | N#Cc1ccc(F)c(OC(=O)N2CCC(S(=O)(=O)c3ccc(Br)cc3)CC2)c1 [Example 60, 5-Cyano-2-fluorophenyl 4-(4-bromophenylsulfonyl)piperidine-1-carboxylate] | 0.11 to 1 µM | 0.01 to 0.1 µM | 0.01 to 0.1 µM | 0.01 to 0.1 µM | – | –
21 | O=C(N1CC(N2CCC(c3ccccc3)CC2)C1)n1cnc2ccccc21 [Example 83, (1H-Benzo[d]imidazol-1-yl)(3-(4-phenylpiperidin-1-yl)azetidin-1-yl)methanone] | 0.01 to 0.1 µM | > 1 µM | > 1 µM | 0.01 to 0.1 µM | – | –
